{"source": "patent US12516070B2", "about": "“Fused ring derivatives and use thereof in pharmacy” (priority 2020, dated 2026)", "key": {"[1]": {"system": "A/PR/8/34 I38T Mutation (H1N1)", "type": "cell-based, influenza virus"}, "[2]": {"system": "A/WSN/33 I38T Mutation (H1N1)", "type": "cell-based, influenza virus"}}, "note": "pEC50: −log10 of the molar value.", "data": [{"smiles": "CN1C(=O)c2c(O)c(=O)ccn2N2[C@H](c3ccccc3Br)c3cc(F)c(F)cc3OCC[C@@H]12", "note": "[Compound 18A]", "values": [{"measurement": "pEC50", "setting": "[1]", "value": 6.93}, {"measurement": "pEC50", "setting": "[2]", "value": 6.67}]}]}
